Results: paper PMC6801822, “The Bactericidal Activity of Temporin Analogues Against Methicillin Resistant Staphylococcus aureus” (International Journal of Molecular Sciences, 2019)
In brackets after ≈: the same amount, converted by molar mass. Like-named read-outs stand apart in the source and are kept apart here. Non-standard residues stand in square brackets, D forms with d. Residues, ends and D or L forms follow the SMILES beside them. AEEA = NCCOCCOCC(=O)O; βAla = NCCC(=O)O

Key:
S. aureus Newman = conditions: Newman, 24 h
Procedure: (§1) Antimicrobial activity of peptides was analyzed through determination of MIC parameter according to the standard microdilution technique performed on 96-well plates. Mueller-Hinton broth (MHB, Sigma Aldrich, St. Louis, MO, USA) was used as the working medium for all bacterial strains. Briefly, inoculum was prepared from freshly grown cultures of bacteria being at their exponential phase of growth. Each well of 96-well plates containing 100 µL of serially diluted peptides in PBS at desired concentration was inoculated with 100 µL of 10^5 CFU/mL of bacterial suspension. Then plates were incubated overnight 37 °C and absorbance was read at 600 nm after 24 h. Wells without peptide were treated as the positive control, while uninoculated MHB was defined as the negative control. All measurements were run in triplicates.

S. aureus USA300 [1] = conditions: for MIC: USA300, 24 h
Procedure: as §1

S. aureus ATCC 25923 = conditions: ATCC 25923, 24 h
Procedure: as §1

[2] = test system: S. epidermidis ATCC 12228; conditions: ATCC 12228, 24 h
Procedure: as §1

S. aureus USA300 [3] = assay: microbe, parasite or virus in culture; conditions: Staphylococcus aureus, MRSA / USA300, 24 h
Procedure: as §1

[4] = cited from earlier work
Excerpt: The efficient antibacterial activity of the DAL-PEG-DK5 conjugate may be due to the fact that it has a higher cationic charge than DK5 (+7 vs. +6, respectively). However, a α-helicity must also play an important role in this case. According to a common view about the mechanism underlying the antimicrobial activity of AMPs, formation of hel ...

[5] = test system: intracellular MRSA clinical isolate; conditions: cited from earlier work; for MIC: MRSA clinical isolate
Excerpt: Cumulatively, these findings encouraged us to test the ability of the peptide conjugate to kill invasive intracellular MRSA. […] In addition, ...

Compound | MIC (S. aureus Newman) [µg/mL] | MIC (S. aureus USA300 [1]) [µg/mL] | MIC (S. aureus ATCC 25923) [µg/mL] | MIC [2] [µg/mL] | other results
CC[C@H](C)[C@H](NC(=O)COCCOCCNC(=O)CNC(=O)[C@@H]1CCCN1C(=O)[C@H](CCC(=O)O)NC(=O)[C@H](CC(C)C)NC(=O)CNC(=O)[C@@H](N)CCC(=O)O)C(=O)N[C@@H](CCCCN)C(=O)N[C@@H](CCCCN)C(=O)N[C@H](C(=O)N[C@@H](CC(C)C)C(=O)N[C@@H](CO)C(=O)N[C@H](CCCCN)C(=O)N[C@H](C(=O)N[C@@H](CCCCN)C(=O)N[C@@H](CCCCN)C(=O)N[C@@H](CC(C)C)C(=O)N[C@@H](CC(C)C)C(N)=O)[C@@H](C)CC)[C@@H](C)CC [COMB1-PEG-DK5] (H-EGLEPG[AEEA]IKKILS[dK]IKKLL-NH2; N-terminus assumed) | >190 | >190 | >190 | >190 | 
CN[C@H](CC(C)C)C(=O)N[C@H]1C(=O)N[C@@H](CC(N)=O)C(=O)N[C@H]2C(=O)N[C@H]3C(=O)N[C@H](C(=O)N[C@H](C(=O)O)c4cc(O)cc(O)c4-c4cc3ccc4O)[C@H](O)c3ccc(c(Cl)c3)Oc3cc2cc(c3O[C@@H]2O[C@H](CO)[C@@H](O)[C@H](O)[C@H]2O[C@H]2C[C@](C)(N)[C@H](O)[C@H](C)O2)Oc2ccc(cc2Cl)[C@H]1O [Vancomycin, vancomycin] |  |  |  |  | MIC (S. aureus USA300 [3]): 1 µg/mL (≈ 0.69 µM)
CC[C@H](C)[C@H](NC(=O)COCCOCCNC(=O)[C@H](Cc1c[nH]cn1)NC(=O)CCNC(=O)[C@H](Cc1c[nH]cn1)NC(=O)CCNC(=O)[C@H](Cc1c[nH]cn1)NC(=O)CCN)C(=O)N[C@@H](CCCCN)C(=O)N[C@@H](CCCCN)C(=O)N[C@H](C(=O)N[C@@H](CC(C)C)C(=O)N[C@@H](CO)C(=O)N[C@H](CCCCN)C(=O)N[C@H](C(=O)N[C@@H](CCCCN)C(=O)N[C@@H](CCCCN)C(=O)N[C@@H](CC(C)C)C(=O)N[C@@H](CC(C)C)C(N)=O)[C@@H](C)CC)[C@@H](C)CC [CAR3-PEG-DK5] (H-[βAla]H[βAla]H[βAla]H[AEEA]IKKILS[dK]IKKLL-NH2; N-terminus assumed) | >190 | >190 | >190 | 110 (≈ 50.1 µM) | 
CC[C@H](C)[C@H](N)C(=O)N[C@@H](CCCCN)C(=O)N[C@@H](CCCCN)C(=O)N[C@H](C(=O)N[C@@H](CC(C)C)C(=O)N[C@@H](CO)C(=O)N[C@H](CCCCN)C(=O)N[C@H](C(=O)N[C@@H](CCCCN)C(=O)N[C@@H](CCCCN)C(=O)N[C@@H](CC(C)C)C(=O)N[C@@H](CC(C)C)C(N)=O)[C@@H](C)CC)[C@@H](C)CC [DK5] (H-IKKILS[dK]IKKLL-NH2; N-terminus assumed) |  | >190 |  |  | cationic charge [4]: +6
CC[C@H](C)[C@H](N)C(=O)N[C@@H](CCCCN)C(=O)N[C@@H](CCCCN)C(=O)N[C@H](C(=O)N[C@@H](CC(C)C)C(=O)N[C@@H](CO)C(=O)N[C@H](CCCCN)C(=O)N[C@H](C(=O)N[C@@H](CCCCN)C(=O)N[C@@H](CCCCN)C(=O)N[C@@H](CC(C)C)C(=O)N[C@@H](CC(C)C)C(=O)NCCOCCOCC(=O)N[C@@H](Cc1ccc(O)cc1)C(=O)N[C@H](C)C(=O)NCC(=O)N[C@@H](Cc1ccccc1)C(=O)N[C@@H](CC(C)C)C(=O)N[C@@H](CCCNC(=N)N)C(N)=O)[C@@H](C)CC)[C@@H](C)CC [DK5-PEG-DAL] (H-IKKILS[dK]IKKLL[AEEA]Y[dA]GFLR-NH2; N-terminus and C-terminus assumed) |  |  |  |  | inhibition of USA300 growth relative to DAL-PEG-DK5 (S. aureus USA300 [1]; comparison of MIC 160 vs 40 μg/mL): four times less; α-helical content ([4]; circular dichroism, 30 mM SDS in water): 20%
temporin A |  |  |  |  | MIC [5]: 8 µM; killed intracellular MRSA ([5]; at 2 × MIC): 20%
CC[C@H](C)[C@H](NC(=O)COCCOCCNC(=O)[C@H](Cc1c[nH]cn1)NC(=O)CCN)C(=O)N[C@@H](CCCCN)C(=O)N[C@@H](CCCCN)C(=O)N[C@H](C(=O)N[C@@H](CC(C)C)C(=O)N[C@@H](CO)C(=O)N[C@H](CCCCN)C(=O)N[C@H](C(=O)N[C@@H](CCCCN)C(=O)N[C@@H](CCCCN)C(=O)N[C@@H](CC(C)C)C(=O)N[C@@H](CC(C)C)C(N)=O)[C@@H](C)CC)[C@@H](C)CC [CAR-PEG-DK5] (H-[βAla]H[AEEA]IKKILS[dK]IKKLL-NH2; N-terminus assumed) | >190 | >190 | >190 | 40 (≈ 22.5 µM) | 
CC(=O)NC[C@H]1CN(c2ccc(N3CCOCC3)c(F)c2)C(=O)O1 [Linezolid, linezolid] |  |  |  |  | MIC (S. aureus USA300 [3]): 1 µg/mL (≈ 2.96 µM)
temporin B |  |  |  |  | MIC [5]: 16 µM; killed intracellular MRSA ([5]; at 4 × MIC): 40%
